# Reference: patent publication EP1953147A1, “HETEROCYCLIC COMPOUND AND MEDICINAL APPLICATION THEREOF” (priority 2005, dated 2007)
# Structures can show the parent of a compound that is named as a salt.
# System: ΔG/SEAP/HCV E1E2
# Experiment: Effect of test substance on cell infection with HCV pseudotype virus (SEAP reporter assay in HepG2 cells)
# Type: cell-based
# Conditions: Hepatitis C virus
row,SMILES,IC50
1,"Cc1cc(-c2cnco2)cc(-c2nn(-c3cc(N4CC[C@H](O)C4)ccc3C(F)(F)F)c(=O)c3c2CC(C)(C)C3)c1 [Example 6, 2-[5-((S)-3-hydroxy-pyrrolidin-1-yl)-2-trifluoromethyl-phenyl]-6,6-dimethyl-4-(3-methyl-5-oxazol-5-yl-phenyl)-2,5,6,7-tetrahydro-cyclopenta[d]pyridazin-1-one]",< 0.1 µM
2,"O=c1c2c(c(-c3ccccc3O)nn1-c1cc(N3CC[C@H](O)C3)ccc1C(F)(F)F)CCC2 [Example 111, 4-(2-hydroxy-phenyl)-2-[5-((S)-3-hydroxy-pyrrolidin-1-yl)-2-trifluoromethyl-phenyl]-2,5,6,7-tetrahydro-cyclopenta[d]pyridazin-1-one]",0.1 to 10 µM
3,"O=c1c2c(c(-c3cccnc3)nn1-c1cc(N3CC[C@H](O)C3)ccc1C(F)(F)F)CCC2 [Example 103, 2-[5-((S)-3-hydroxy-pyrrolidin-1-yl)-2-trifluoromethyl-phenyl]-4-pyridin-3-yl-2,5,6,7-tetrahydro-cyclopenta[d]pyridazin-1-one]",0.1 to 10 µM
4,"CCCNc1ccc(C(F)(F)F)c(-n2nc(-c3cc(OC)cc(OC)c3)c3c(c2=O)CCC3)c1 [Example 100, 4-(3,5-dimethoxy-phenyl)-2-(5-propylamino-2-trifluoromethyl-phenyl)-2,5,6,7-tetrahydro-cyclopenta[d]pyridazin-1-one]",< 0.1 µM
5,"O=c1c2c(c(-c3ccncc3)nn1-c1cc(N3CC[C@H](O)C3)ccc1C(F)(F)F)CCC2 [Example 95, 2-[5-((S)-3-hydroxy-pyrrolidin-1-yl)-2-trifluoromethyl-phenyl]-4-pyridin-4-yl-2,5,6,7-tetrahydro-cyclopenta[d]pyridazin-1-one]",0.1 to 10 µM
6,"COc1cc(OC)cc(-c2nn(-c3cc(N4CC[C@H](O)C4)ccc3OC)c(=O)c3c2CCC3)c1 [Example 1-15, 4-(3,5-dimethoxy-phenyl)-2-[5-((S)-3-hydroxy-pyrrolidin-1-yl)-2-methoxy-phenyl]-2,5,6,7-tetrahydro-cyclopenta[d]pyridazin-1-one]",0.1 to 10 µM
7,"COc1ccccc1-c1nn(-c2cc(N3CC[C@H](O)C3)ccc2C(F)(F)F)c(=O)c2c1CCC2 [Example 109, 2-[5-((S)-3-hydroxy-pyrrolidin-1-yl)-2-trifluoromethyl-phenyl]-4-(2-methoxy-phenyl)-2,5,6,7-tetrahydro-cyclopenta[d]pyridazin-1-one]",0.1 to 10 µM
8,"COc1cc(OC)cc(-c2nn(-c3cc(NCCC(=O)N(C)C)ccc3C(F)(F)F)c(=O)c3c2CCC3)c1 [Example 139, 3-{3-[4-(3,5-dimethoxy-phenyl)-1-oxo-1,5,6,7-tetrahydro-cyclopenta[d]pyridazin-2-yl]-4-trifluoromethyl-phenylamino}-N,N-dimethyl-propionamide]",< 0.1 µM
9,"COc1cc(C)cc(-c2nn(-c3cc(N4CC[C@H](O)C4)ccc3C(F)(F)F)c(=O)c3c2CCN3)c1 [Example 14, 6-[5-((S)-3-hydroxy-pyrrolidin-1-yl)-2-trifluoromethyl-phenyl]-4-(3-methoxy-5-methyl-phenyl)-1,2,3,6-tetrahydro-pyrrolo[2,3-d]pyridazin-7-one]",< 0.1 µM
10,"Cc1cc(-c2cnco2)cc(-c2nn(-c3cc(N4CC[C@H](O)C4)ccc3C(F)(F)F)c(=O)c3c2CCC3)c1 [Example 2, 2-[5-((S)-3-hydroxy-pyrrolidin-1-yl)-2-trifluoromethyl-phenyl]-4-(3-methyl-5-oxazol-5-yl-phenyl)-2,5,6,7-tetrahydro-cyclopenta[d]pyridazin-1-one]",< 0.1 µM
11,"COc1cc(OC)cc(-c2nn(-c3cc(OCCCO)ccc3C(F)(F)F)c(=O)c3c2CCC3)c1 [Example 1-13, 4-(3,5-dimethoxy-phenyl)-2-[5-(3-hydroxy-propoxy)-2-trifluoromethyl-phenyl]-2,5,6,7-tetrahydro-cyclopenta[d]pyridazin-1-one]",< 0.1 µM
12,"COC(=O)CN1CCc2c(-c3cc(OC)cc(OC)c3)nn(-c3cc(N4CC[C@H](O)C4)ccc3C(F)(F)F)c(=O)c21 [Example 26, {4-(3,5-dimethoxy-phenyl)-6-[5-((S)-3-hydroxy-pyrrolidin-1-yl)-2-trifluoromethyl-phenyl]-7-oxo-2,3,6,7-tetrahydro-pyrrolo[2,3-d]pyridazin-1-yl}-acetic acid methyl ester]",< 0.1 µM
13,"Cc1cc(C)cc(-c2nn(-c3cc(N4CC[C@H](O)C4)ccc3C(F)(F)F)c(=O)c3c2CC(C)N3)c1 (stereo partly drawn) [Example 1-33, 4-(3,5-dimethyl-phenyl)-6-[5-((S)-3-hydroxy-pyrrolidin-1-yl)-2-trifluoromethyl-phenyl]-2-methyl-1,2,3,6-tetrahydro-pyrrolo[2,3-d]pyridazin-7-one]",< 0.1 µM
14,"COCCNC(=O)CN1CCc2c(-c3cc(OC)cc(OC)c3)nn(-c3cc(N4CC[C@H](O)C4)ccc3C(F)(F)F)c(=O)c21 [Example 36, 2-{4-(3,5-dimethoxy-phenyl)-6-[5-((S)-3-hydroxy-pyrrolidin-1-yl)-2-trifluoromethyl-phenyl]-7-oxo-2,3,6,7-tetrahydro-pyrrolo[2,3-d]pyridazin-1-yl}-N-(2-methoxy-ethyl)-acetamide]",< 0.1 µM
15,"COc1cc(OC)cc(-c2nn(-c3c(Cl)cccc3Cl)c(=O)c3c2CCC3)c1 [Example 87, 2-(2,6-dichloro-phenyl)-4-(3,5-dimethoxy-phenyl)-2,5,6,7-tetrahydro-cyclopenta[d]pyridazin-1-one]",< 0.1 µM
16,"CCN(C)c1ccc(C(F)(F)F)c(-n2nc(-c3cc(OC)cc(OC)c3)c3c(c2=O)CCC3)c1 [Example 68, 4-(3,5-dimethoxy-phenyl)-2-[5-(ethyl-methylamino)-2-trifluoromethyl-phenyl]-2,5,6,7-tetrahydro-cyclopenta[d]pyridazin-1-one]",< 0.1 µM
17,"COc1cc(OC)cc(-c2nn(-c3cc(CN(C)C)ccc3C(F)(F)F)c(=O)c3c2CCC3)c1 [Example 160, 4-(3,5-dimethoxy-phenyl)-2-(5-dimethylaminomethyl-2-trifluoromethyl-phenyl)-2,5,6,7-tetrahydro-cyclopenta[d]pyridazin-1-one hydrochloride]",0.1 to 10 µM
18,"COc1cc(OC)cc(-c2nn(-c3cc(N4CC[C@H](O)C4)ccc3N(C)C)c(=O)c3c2CCC3)c1 [Example 1-6, 4-(3,5-dimethoxy-phenyl)-2-[2-dimethylamino-5-((S)-3-hydroxy-pyrrolidin-1-yl)-phenyl]-2,5,6,7-tetrahydro-cyclopenta[d]pyridazin-1-one]",0.1 to 10 µM
19,"COc1cc(OC)cc(-c2nn(-c3cc(NCc4ccccc4)ccc3C(F)(F)F)c(=O)c3c2CCC3)c1 [Example 135, 2-(5-benzylamino-2-trifluoromethyl-phenyl)-4-(3,5-dimethoxy-phenyl)-2,5,6,7-tetrahydro-cyclopenta[d]pyridazin-1-one]",0.1 to 10 µM
20,"COc1cc(OC)cc(-c2nn(-c3cc(C#CCO)ccc3C(F)(F)F)c(=O)c3c2CCC3)c1 [Example 120, 4-(3,5-dimethoxy-phenyl)-2-[5-(3-hydroxy-prop-1-ynyl)-2-trifluoromethyl-phenyl]-2,5,6,7-tetrahydro-cyclopenta[d]pyridazin-1-one]",< 0.1 µM
21,"Cc1ccc(-c2nn(-c3cc(N4CC[C@H](O)C4)ccc3C(F)(F)F)c(=O)c3c2CCC3)cc1 [Example 114, 2-[5-((S)-3-hydroxy-pyrrolidin-1-yl)-2-trifluoromethyl-phenyl]-4-p-tolyl-2,5,6,7-tetrahydro-cyclopenta[d]pyridazin-1-one]",< 0.1 µM
22,"O=c1c2c(c(-c3ccccc3)nn1-c1cc(N3CC[C@H](O)C3)ccc1C(F)(F)F)CCC2 [Example 66, 2-[5-((S)-3-hydroxy-pyrrolidin-1-yl)-2-trifluoromethyl-phenyl]-4-phenyl-2,5,6,7-tetrahydro-cyclopenta[d]pyridazin-1-one]",< 0.1 µM
23,"COc1cc(OC)cc(-c2nn(-c3cc(F)ccc3C(F)(F)F)c(=O)c3c2CCN3)c1 [Example 50, 4-(3,5-dimethoxy-phenyl)-6-(5-fluoro-2-trifluoromethyl-phenyl)-1,2,3,6-tetrahydro-pyrrolo[2,3-d]pyridazin-7-one]",0.1 to 10 µM
24,"COc1cc(OC)cc(-c2nn(-c3cc(N4CC[C@H](O)C4)ccc3C(F)(F)F)c(=O)c3c2CCN3C(=O)OC(C)C)c1 [Example 155, 4-(3,5-dimethoxy-phenyl)-6-[5-((S)-3-hydroxy-pyrrolidin-1-yl)-2-trifluoromethyl-phenyl]-7-oxo-2,3,6,7-tetrahydro-pyrrolo[2,3-d]pyridazine-1-carboxylic acid isopropyl ester]",< 0.1 µM
25,"Cc1cc(-c2nn(-c3cc(N4CC(CO)C4)ccc3C(F)(F)F)c(=O)c3c2CCN3CCO)ccc1F [Example 1-23, 4-(4-fluoro-3-methyl-phenyl)-1-(2-hydroxy-ethyl)-6-[5-(3-hydroxymethyl-azetidin-1-yl)-2-trifluoromethylphenyl]-1,2,3,6-tetrahydro-pyrrolo[2,3-d]pyridazin-7-one]",< 0.1 µM
26,"COc1cc(OC)cc(-c2nn(-c3cc(NC(C)CO)ccc3C(F)(F)F)c(=O)c3c2CCC3)c1 (centres unmarked) [Example 131, 4-(3,5-dimethoxy-phenyl)-2-[5-(2-hydroxy-1-methyl-ethylamino)-2-trifluoromethyl-phenyl]-2,5,6,7-tetrahydro-cyclopenta[d]pyridazin-1-one]",< 0.1 µM
27,"CCNc1ccc(C(F)(F)F)c(-n2nc(-c3cc(OC)cc(OC)c3)c3c(c2=O)CCC3)c1 [Example 67, 4-(3,5-dimethoxy-phenyl)-2-(5-ethylamino-2-trifluoromethyl-phenyl)-2,5,6,7-tetrahydro-cyclopenta[d]pyridazin-1-one]",< 0.1 µM
28,"COC(=O)c1ccc(C(F)(F)F)c(-n2nc(-c3cc(OC)cc(OC)c3)c3c(c2=O)CCC3)c1 [Example 1-9, methyl 3-[4-(3,5-dimethoxy-phenyl)-1-oxo-1,5,6,7-tetrahydro-cyclopenta[d]pyridazin-2-yl]-4-trifluoromethyl-benzoate]",< 0.1 µM
29,"CCc1ccc(C(F)(F)F)c(-n2nc(-c3cc(OC)cc(OC)c3)c3c(c2=O)CCC3)c1 [Example 89, 4-(3,5-dimethoxy-phenyl)-2-(5-ethyl-2-trifluoromethyl-phenyl)-2,5,6,7-tetrahydro-cyclopenta[d]pyridazin-1-one]",< 0.1 µM
